Assay results reported in US5532228A, “Side-chain homologous vitamin D derivatives, process for their production, pharmaceutical preparations containing these derivatives and their use as pharmaceutical agents” (Schering Aktiengesellschaft, priority 1990, dated 1996).
Where two headings read alike, the source gives them in different places.

Experiments:
[1] = test system: Keratinocytes of newborn mice; assay: antiproliferative test: 3H-thymidine incorporation in DNA of keratinocytes; format: cell-based, mouse (neonatal NMRI mice); settings: mouse keratinocytes, 24 hours with test substance in serum-free medium at 32.5° C., 4 hours 3H-methylthymidine, read-out: IC50 of inhibition of 3H-thymidine incorporation in DNA
Procedure: Keratinocytes of newborn mice are prepared and cultivated in a modification of the method of Yuspa, S. and Harris, C.
Neonatal NMRI mice of both sexes are killed by decapitation, the skin is removed, washed in an antibiotic-antimycotic solution and, with the dermal side facing down, incubated overnight at 4° C. in dispase II solution (1.2 U/ml in tissue culture medium M199 +25 mmol/l HEPES+15% fetal calf serum (FCS)+50 U/ml of penicillin/streptomycin (P/S) (preparation medium, PM). The epidermis is removed and a single-cell suspension is produced by trypsinization. After centrifuging, the cell sediment is resuspended, the number of living, small, round cells is determined after trypan blue staining and the cells are sown in a density of 4×10^5 cells/cm^2 in Primaria 24-hole plates in tissue culture medium (M199+15% FCS+50 U/ml of P/S). […] Then, 0.4 microcuries/50 microliters of ^3 H-methylthymidine (40 Ci/mmol) is added. After 4 hours, the medium is suctioned off and the reaction is ended by adding 500 microliters of ice-cold 10% trichloroacetic acid (TCA). The cells are washed with TCA and PBS, lysed by incubation in a proteinase K-solution (10 mmol/l of tris-HCl, 10 mmol/l of EDTA, 10 mmol/l of NaCl, 0.2% triton-X 100, pH 8.0, 50 micrograms/ml of […]) and the lysate is clarified by centrifuging. In the supernatant fluid, the radioactivity is determined by scintillation photometry and, after specific staining of the DNA with diamidinophenylindole (DAPI), the DNA concentration is determined by fluorescence photometry.

[2] = test system: HL 60 cells (human leukemia cells, promyelocytic cell line); assay: HL 60 differentiation induction into macrophages (NBT reduction to formazan); format: cell-based; settings: for EC50: Homo sapiens, HL-60, 96 hours incubation, NBT-TPA, formazan at 650 nm, read-out: ED50 of differentiation induction of HL 60 cells into macrophages (formazan formed); for differentiation-stimulating effect compared with calcitriol: HL 60 cells, versus calcitriol
Procedure: To quantify the differentiation-stimulating effect of calcitriol analogs, the test indicated below was performed:
HL 60 cells are cultivated in tissue culture medium (RPM1--10% fetal calf serum) at 37° C. in an atmosphere of 5% CO2 in air.
The test substances are-dissolved in ethanol and diluted with tissue culture medium without phenol red to the desired concentration. The dilution stages are mixed with the cell suspension in a ratio of 1:10 and 100 microliters each of this cell suspension mixed with substance is pipetted into an indentation of a 96-hole plate. As a control, a cell suspension is mixed analogously with the solvent.
After incubation for 96 hours at 37° C. in 5% CO2 in air, 100 microliters of an NBT-TPA solution (nitro blue tetrazolium (NBT), final concentration in the batch 1 mg/ml, tetradecanoyl-phorbol myristate-13-acetate (TPA), final concentration in the batch 2×10^-7 mol/l) is pipetted into each indentation of the 96-hole plate into the cell suspension.
By incubation for 2 hours at 37° C. and 5% CO2 in air, the NBT is reduced to insoluble formazan because of the intracellular oxygen radical release, stimulated by TPA, in the cells differentiated into macrophages.
To end the reaction, the indentations of the 96-hole plate are drained and the adhering cells are fixed by adding methanol and dried after fixation.
To dissolve the intracellular formazan crystals formed, 100 microliters of potassium hydroxide (2 val/l) and 100 microliters of dimethyl sulfoxide are pipetted into each indentation and are exposed to ultrasonic waves for 1 minute. The concentration of formazan is measured by spectrophotometry at 650 nm.
The concentration of formazan formed is regarded as a measurement for the differentiation induction of the HL 60 cells into macrophages. The relative effectiveness of the test substance results from the quotient of ED50 test substance/ED50 calcitriol.

EC50 [2] [nM]	Compound	IC50 ([1]; Keratinocyte) [nM]	differentiation-stimulating effect compared with calcitriol [2]	IC50 [1] [nM]
2.5	C=C1/C(=C\C=C2/CCC[C@]3(C)[C@@H]([C@H](C)C/C=C/[C@@H](O)CC4CC4)CC[C@@H]23)C[C@@H](O)C[C@@H]1O [compound D, 26,27-cyclo-24a,24b-dihomo-9,10-secocholesta-5Z,7E,10(19),23E-tetraene-1(S),3(R),24a(S)-triol]	–	practically do not differ	–
–	C=C1/C(=C\C=C2/CCC[C@]3(C)[C@@H]([C@H](C)C/C=C/C(O)CC(C)C)CC[C@@H]23)C[C@@H](O)C[C@@H]1O (single isomer, unassigned) [compound B]	–	–	3.2
2.2	C=C1/C(=C\C=C2/CCC[C@]3(C)[C@@H]([C@H](C)C/C=C/[C@H](O)CC4CC4)CC[C@@H]23)C[C@@H](O)C[C@@H]1O [compound C, 26,27-cyclo-24a,24b-dihomo-9,10-secocholesta-5Z,7E,10(19),23E-tetraene-1(S),3(R),24a(R)-triol]	–	practically do not differ	–
–	C=C1/C(=C\C=C2/CCC[C@]3(C)[C@@H]([C@H](C)C/C=C/C(O)CC(C)C)CC[C@@H]23)C[C@@H](O)C[C@@H]1O (single isomer, unassigned) [compound A]	–	–	10

Compound	EC50 [2] [nM]	IC50 ([1]; Keratinocyte) [nM]	differentiation-stimulating effect compared with calcitriol [2]	IC50 [1] [nM]
C=C1/C(=C\C=C2/CCC[C@]3(C)[C@@H]([C@H](C)CCCC(C)(C)O)CC[C@@H]23)C[C@@H](O)C[C@@H]1O [calcitriol, lalpha,25-dihydroxycholecalciferol, reference compound]	1.8	2	–	–
